Results on 18 compounds are retold here after patent publication US8975400B2, “2,3-dihydroimidazo[1, 2-c] pyrimidin-5(1 H)-one compounds use as LP-PLA2 inhibitors” (Glaxo Group Limited, priority 2011, dated 2015).

Molecules are shown by their SMILES. Counter-ions that a name gives are not always drawn. Some results are limits rather than exact numbers.

The target in assay [1] is T1, recombinant human Lp-PLA2 (Homo sapiens, UniProt Q13093).
T1 sequence (Q13093 22-441): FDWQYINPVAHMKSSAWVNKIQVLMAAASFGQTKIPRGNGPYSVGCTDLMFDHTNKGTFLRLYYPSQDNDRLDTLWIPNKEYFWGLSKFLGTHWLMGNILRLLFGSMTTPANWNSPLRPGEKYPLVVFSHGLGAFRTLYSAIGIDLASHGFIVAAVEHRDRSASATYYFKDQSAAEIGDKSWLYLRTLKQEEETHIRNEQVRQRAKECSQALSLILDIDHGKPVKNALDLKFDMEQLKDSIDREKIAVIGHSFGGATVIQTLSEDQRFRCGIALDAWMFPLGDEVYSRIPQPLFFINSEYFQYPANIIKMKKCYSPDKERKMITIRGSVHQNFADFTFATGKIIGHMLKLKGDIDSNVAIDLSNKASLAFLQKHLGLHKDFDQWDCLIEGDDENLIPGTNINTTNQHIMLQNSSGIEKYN
Briefly: Recombinant human Lp-PLA2 assay (rhLp-PLA2, PED6 assay). In kind it is biochemical. As to conditions: recombinant human Lp-PLA2, PED6 substrate; upper limit for pIC50 in this assay is 9.3. The text has this: (1) Recombinant Human Lp-PLA2 Assay (rhLp-PLA2) (Also Referred to as “PED6” Assay)
N-((6-(2,4-dinitrophenyl)amino)-hexanoyl)-2-(4,4-difluoro-5,7-dimethyl-4-bora-3a,4a-diaza-s-indacene-3-pentanoyl)-1-hexadecanoyl-sn-glycero-3-phosphoethanolamine, triethylammonium salt (PED6) is a commercially available fluorescently-labeled phospholipid, which is commercially available from Invitrogene and Molecular Probes. There is a quenching […] and a Bodipy fluorescein (FL) group in the sn2 position. Upon cleavage with Lp-PLA2, the Bodipy FL group is liberated and then may result in an increase in fluorescence. Inhibitors of Lp-PLA2 therefore prevent this cleavage and no fluorescent increase is observed.
The PED6 assay was run as an unquenched 10 μL assay. The source plate containing the compounds to be tested was prepared by making 1:3 (by volume) serial dilution of the compounds within DMSO on 384-well microplate. Then, 0.01 μL of the compounds on compound source plate were transferred into 384 well Greiner 784076 (black) plates using ECHO liquid dispenser. 5 µL of recombinant human Lp-PLA2 enzyme (4 nM (or 110 pM) rhLp-PLA2 in assay buffer of 50 mM HEPES, pH 7.4, 150 mM NaCl, 1 mM CHAPS) was added to each well of the plate. Plates were centrifuged for 10 sec at 500 rpm. After 30 minutes preincubation, 5 µL of substrate (4 μM (or 5 μM) PED6 [from 5 mM DMSO stock] in assay buffer of 50 mM HEPES, pH 7.4, 150 mM NaCl, 1 mM CHAPS) was added to 384 well Greiner 784076 (black) plates. Plates were centrifuged for 10 sec at 500 rpm. The plate was covered to protect it from light and incubated for 20 min at room temperature. The plates were read for fluorescence intensity at ex: 480/em: 540 using ViewLux microplate imager for Envision spectrofluroimeters pIC50 data, curve and QC analysis was conducted by using XL fit module in Excel.
The compounds described below were tested generally according to the PED6 assay described above.

A further assay has as its target T2, Lp-PLA2 in human plasma (Homo sapiens, UniProt Q13093).
T2 construct: This assay may detect the activity of Lp-PLA2 in human plasma; from tissue; host or cells: pooled human plasma
T2 sequence (Q13093 22-441): T1 sequence (Q13093 22-441)
Briefly: Lp-PLA2 human plasma assay (Thio-PAF assay). Type of assay: biochemical. As to conditions: pooled human plasma, 2-thio-PAF substrate; read-out: pIC50 in the thio-PAF assay (converted). An excerpt: (3) Lipoprotein-Associated Phospholipase A2 (Lp-PLA2) Human Plasma Assay (Also Referred to as “Thio-PAF Assay”)
The human plasma assay utilizes a thioester analog of PAF (phosphatidylcholine), where hydrolysis yields to the formation of a phospholipid containing a free thiol group. The amount of thiol is quantitated continuously by reacting with CPM (7-diethylamino-3-(4′-maleimidylphenyl)-4-methylcoumarin), a maleimide which increases in fluoresence after Michael addition of thiols. This assay may detect the activity of Lp-PLA2 in human plasma, as determined by specific inhibition by Lp-PLA2 inhibitors.
The thio-PAF assay was run as a quenched 15 μL assay. Compounds source plate was prepared by making 1:3 (by volume) serial dilution of the compounds into pure DMSO on 384-well microplate. 0.01 μL of compounds on compound source plate were transferred to 384 well Greiner 784076 (black) low-volume plates by ECHO liquid dispenser. 8 μL pooled human plasma, which was previously aliquoted and frozen, was added. Plates were centrifuged for 10 sec at 500 rpm. After 30 minutes preincubation, 2 μL of substrate solution comprising 2.5 mM 2-thio-PAF [from ethanol stock], 32 μM CPM [from a DMSO stock] and 3.2 mM NEM (N-ethylmaleimide) [made fresh daily in DMSO] in assay buffer of 50 mM HEPES, pH 7.4, 150 mM NaCl, 1 mM CHAPS was added to 384 well Greiner 784076 (black) low-volume plates by BRAVO liquid handling station. After 2 mins, reaction was quenched with 5 μL of 5% aqueous trifluoroacetic acid (TFA). Plates were covered to protect from light and incubated for 40 min at room temperature. Plates were read at ex: 380/em: 485 using-Envision microplate reader. pIC50 data, curve and QC analysis was conducted by using XLFit module in Excel.

With `CN1CCn2c1cc(OCc1ccc(Oc3cncc(C(F)(F)F)c3)c(C#N)c1)nc2=O` [Example 115, 5-(((1-methyl-5-oxo-1,2,3,5-tetrahydroimidazo[1,2-c]pyrimidin-7-yl)oxy)methyl)-2-((5-(trifluoromethyl)pyridin-3-yl)oxy)benzonitrile, trifluoroacetic acid salt], the IC50 in assay [1] was 3.98 nM; at Lp-PLA2 in human plasma, ≤ 100 nM.
The like results for `CN1CCn2c1cc(OCc1ccc(Oc3cc(F)cc(C(F)(F)F)c3)c(C#N)c1)nc2=O` [Example 116] were, in that order, ≤ 1 nM and ≤ 100 nM.
In the case of `N#Cc1ccc(Oc2ccc(COc3cc4n(c(=O)n3)CCN4)cc2F)cc1C(F)(F)F` [Example 118, 4-(2-fluoro-4-(((5-oxo-1,2,3,5-tetrahydroimidazo[1,2-c]pyrimidin-7-yl)oxy)methyl)p-hen-oxy)-2-(trifluoromethyl)benzonitrile], the IC50 in assay [1] is 0.794 nM; at Lp-PLA2 in human plasma, ≤ 100 nM.
`O=c1nc(OCc2ccc(Oc3ccnc(C(F)(F)F)c3)c(F)c2)cc2n1CCN2` [Example 119, 7-((3-fluoro-4-((2-(trifluoromethyl)pyridin-4-yl)oxy)benzyl)oxy)-2,3-dihydroimidazo[1,2-c]pyrimidin-5(1H)-one]: the IC50 in assay [1] is 2.51 nM; at Lp-PLA2 in human plasma it was ≤ 100 nM.
In the case of `N#Cc1cc(COc2cc3n(c(=O)n2)CCN3)ccc1Oc1cc(F)cc(C(F)(F)F)c1` [Example 120, 2-(3-fluoro-5-(trifluoromethyl)phenoxy)-5-(((5-oxo-1,2,3,5-tetrahydroimidazo[1,2-c]pyrimidin-7-yl)oxy)methyl)benzonitrile], the IC50 was ≤ 10 nM in assay [1] and ≤ 100 nM at Lp-PLA2 in human plasma.
Turning to `CN1CCn2c1cc(OCc1ccc(Oc3ccc(C#N)c(Cl)c3)c(C#N)c1)nc2=O` [Example 122, 2-chloro-4-(2-cyano-4-(((1-methyl-5-oxo-1,2,3,5-tetrahydroimidazo[1,2-c]pyrimidin-7-yl)oxy)methyl)phenoxy)benzonitrile], the IC50 in assay [1] was ≤ 10 nM; on Lp-PLA2 in human plasma, ≤ 100 nM.
The like results for `CN1CCn2c1cc(OCc1ccc(Oc3ccnc(C(F)(F)F)c3)cc1)nc2=O` [Example 123, 1-methyl-7-((4-((2-(trifluoromethyl)pyridin-4-yl)oxy)benzyl)oxy)-2,3-dihydroimid-azo[1,2-c]pyrimidin-5(1H)-one] were, in that order, ≤ 10 nM and ≤ 1000 nM.
As to `N#Cc1cc(COc2cc3n(c(=O)n2)CCN3)ccc1Oc1cncc(C(F)(F)F)c1` [Example 124, 5-(((5-oxo-1,2,3,5-tetrahydroimidazo[1,2-c]pyrimidin-7-yl)oxy)methyl)-2-((5-(trifluoromethyl)pyridin-3-yl)oxy)benzonitrile, trifluoroacetic acid salt], the figures for the IC50 (in assay [1]; at Lp-PLA2 in human plasma) were ≤ 10 nM and ≤ 100 nM, respectively.
The like results for `CN1CCn2c1cc(OCc1ccc(Oc3ccc(Cl)c(C#N)c3)c(F)c1)nc2=O` [Example 125, 2-chloro-5-(2-fluoro-4-(((1-methyl-5-oxo-1,2,3,5-tetrahydroimidazo[1,2-c]pyrimidin-7-yl)oxy)methyl)phenoxy)benzonitrile] were, in that order, ≤ 1 nM and ≤ 100 nM.
The like results for `CN1CCn2c1cc(OCc1ccc(Oc3cncc(C(F)(F)F)c3)c(F)c1)nc2=O` [Example 126, 7-((3-fluoro-4-((5-(trifluoromethyl)pyridin-3-yl)oxy)benzyl)oxy)-1-methyl-2,3-dihydroimidazo[1,2-c]pyrimidin-5(1H)-one] were, in that order, ≤ 10 nM and ≤ 100 nM.
With `CN1CCn2c1cc(OCc1ccc(Oc3ccc(C#N)c(Cl)c3)c(F)c1)nc2=O` [Example 128, 2-chloro-4-(2-fluoro-4-(((1-methyl-5-oxo-1,2,3,5-tetrahydroimidazo[1,2-c]pyrimidin-7-yl)oxy)methyl)phenoxy)benzonitrile], the IC50 is ≤ 1 nM in assay [1] and ≤ 100 nM on Lp-PLA2 in human plasma.
Turning to `CN1CCn2c1cc(OCc1ccc(Oc3ccnc(C#N)c3)c(F)c1)nc2=O` [Example 129, 4-(2-fluoro-4-(((1-methyl-5-oxo-1,2,3,5-tetrahydroimidazo[1,2-c]pyrimidin-7-yl)oxy)methyl)phenoxy)picolinonitrile, trifluoroacetic acid salt], the IC50 in assay [1] was ≤ 10 nM; at Lp-PLA2 in human plasma it was ≤ 1000 nM.
On to `CN1CCn2c1cc(OCc1ccc(Oc3ccnc(C#N)c3)c(C#N)c1)nc2=O` [Example 130, 4-(2-cyano-4-(((1-methyl-5-oxo-1,2,3,5-tetrahydroimidazo[1,2-c]pyrimidin-7-yl)oxy)methyl)phenoxy)picolinonitrile, trifluoroacetic acid salt], for which the figures for the IC50 (in assay [1]; at Lp-PLA2 in human plasma) were ≤ 10 nM and ≤ 100 nM, respectively.
For the compound `CN1CCn2c1cc(OCc1ccc(Oc3cncc(Cl)c3)c(C#N)c1)nc2=O` [Example 134, 2-((5-chloropyridin-3-yl)oxy)-5-(((1-methyl-5-oxo-1,2,3,5-tetrahydroimidazo[1,2-c]pyrimidin-7-yl)oxy)methyl)benzonitrile], the IC50 in assay [1] was ≤ 10 nM; on Lp-PLA2 in human plasma, ≤ 100 nM.
In the same order, the values of `CN1CCn2c1cc(OCc1ccc(Oc3ccc(C#N)c(F)c3)c(F)c1)nc2=O` [Example 136, 2-fluoro-4-(2-fluoro-4-(((1-methyl-5-oxo-1,2,3,5-tetrahydroimidazo[1,2-c]pyrimidin-7-yl)oxy)methyl)phenoxy)benzonitrile] are ≤ 10 nM and ≤ 1000 nM.
Take `CN1CCn2c1cc(OCc1ccc(Oc3ccc(F)c(C#N)c3)c(F)c1)nc2=O` [Example 139, 2-fluoro-5-(2-fluoro-4-(((1-methyl-5-oxo-1,2,3,5-tetrahydroimidazo[1,2-c]pyrimidin-7-yl)oxy)methyl)phenoxy)benzonitrile]: the values for the IC50 (in assay [1]; at Lp-PLA2 in human plasma) were ≤ 10 nM and ≤ 1000 nM, respectively.
Take `CN1CCn2c1cc(OCc1cc(F)c(Oc3ccc(C(F)(F)F)c(F)c3)c(F)c1)nc2=O` [Example 140, 7-((3,5-difluoro-4-(3-fluoro-4-(trifluoromethyl)phenoxy)benzyl)oxy)-1-methyl-2,3-dihydroimidazo[1,2-c]pyrimidin-5(I H)-one]: the figures for the IC50 (in assay [1]; on Lp-PLA2 in human plasma) were ≤ 1 nM and ≤ 100 nM, respectively.
The like results for `CN1CCn2c1cc(OCc1cc(F)c(Oc3ccc(C#N)c(C(F)(F)F)c3)c(F)c1)nc2=O` [Example 144, 4-(2,6-difluoro-4-(((1-methyl-5-oxo-1,2,3,5-tetrahydroimidazo[1,2-c]pyrimidin-7-yl)oxy)methyl)phenoxy)-2-(trifluoromethyl)benzonitrile] were, in that order, < 0.501 nM and ≤ 100 nM.
